In data set [1] the test system is multiple resistance to cytostatics (multidrug resistance). To be noted: literature; cited from earlier work.
For data set [2] the following is noted: background statement, no test given; cited from earlier work.
Data set [3] relates to multiple resistance to cytostatics (multidrug resistance). In words: elimination of multiple resistance to cytostatics (literature and background statements). The conditions noted are these: compared with compounds of formula I.
Another data set can be described thus: in vivo. The conditions noted are these: po, mouse, preliminary, read-out: Toxicity (LD50).
Data set [4] relates to KB-8-5 cells. As to the kind of experiment: resistance modification index (RMI) test with vincristine in multidrug-resistant cells (formazan colorimetric measurement). It is filed as cell-based, human. The conditions noted are these: RMI at 0.1·IC50 of the substance; RMI = IC50 vincristine without / with test substance; n = 2 (A-E) or 4 (verapamil). An excerpt:
The modifying activity of multiple resistance to cytostatics of the compounds of formula I, of rac-N-(3,4-dimethoxyphenethyl)-2-(3,4-dimethoxyphenyl)-β,N-dimethyl-m-dithiane-2-propanamine and of usual reference substances was investigated as follows:
(§1) KB-8-5 cells, a human cell line with multiple resistance to cytostatics, and KB-3-1 cells, a correspondingly sensitive cell line [Cell. Mol. Genet. 11, 117-126, (1985) and Science 232, 643-645, (1986)], were cultivated in suitable media [Cancer Res. 94, 267-275, (1984), Exp. Hematol. 12, 559-567, (1984), Eliason, Ramuz & Kaufmann in Int. J. Cancer 46, 113-117, (1990)].
(§2) The testing and the determination of cytotoxicity are based on the ability of living cells to reduce 3-(4,5-dimethylthiazol-2-yl)-2,5-diphenyltetrazolium bromide to the corresponding blue formazan (colorimetric measurement) [J. Immunol. Methods 65, 55-63, (1985)]. The cells were incubated for 2 days in separate containers. The compounds selected for the biological investigation were added to the cell cultures in such a manner that the serial concentrations 10^-8 M, 10^-7 M, 10^-6 M, 10^-5 M and 10^-4 M were achieved. Vincristine in 4 dilution series (3·10^-9 M, 10^-8 M, 3·10^-8 M and 10^-7 M for KB-8-5 cells and 30 times less for the KB-3-1 cells) was added thereto. After incubating for 5 days the cell count was measured at 540 nm using the formazan color reaction. The evaluation was carried out by calculating a resistance modification index, RMI, which is the ratio between the IC50 value of vincristine in the absence of a test substance and the IC50 value of vincristine in the presence of a test substance. [formula]
(RMI0.1 ≡RMI at 0.1·IC50 of the substance).

Data set [5] has as its system KB-8-5 cells. In words: cytotoxicity (IC50) of the test substance, MTT/formazan color reaction. In kind it is cell-based. To be noted: Homo sapiens, 120 h.
Description: as §1
as §2, with “The biological test is based on the ability of the test substance to lower the concentration of a standard cytostatic which is required to kill 50% of the cells. The testing” for “The testing”
In order to compare all activities of compounds from different classes, a RMI0.1 is defined: this is the RMI value of a substance which is obtained with the ten-fold lower concentration than the IC50 value. (RMI0.1 ≡RMI at 0.1·IC50 of the substance). […] The preliminary toxicological data (LD50, mouse) after oral administration of the test compound are also given.

Like-named read-outs stand apart in the source and are kept apart here.

With `COc1ccc(CCN(C)CCCC(C#N)(c2ccc(OC)c(OC)c2)C(C)C)cc1OC` (stereo not shown) [verapamil], the “activity in eliminating multiple resistance” value in data set [1] is given as “certain activity in partially or completely eliminating multiple resistance”.

On to `COc1ccc(CCN(C)CCCC2(c3ccc4ccccc4c3)SCCCS2)cc1OC` (racemic) [rac-N-(3,4-dimethoxyphenethyl)-N-methyl-2-(2-naphthyl)-m-dithiane-2-propanamine], for which the “activity in eliminating multiple resistance” value in data set [1] is reported as “certain activity in partially or completely eliminating multiple resistance”. Besides, in data set [2], the toxicity result is reported as “relatively toxic”. The “activity vis-a-vis the novel compounds of formula I” value in data set [3] is “clearly lower activity”.

The term LD50 denotes the dose expected to kill half of the subjects tested. What is called IC50 is the concentration that gives 50% inhibition. As for `COc1ccc(C2(CN(C)CC(C)CC3(c4cc(OC)c(OC)c(OC)c4)SCCCS3)CCC2)cc1OC.Cl` (racemic) [C, rac-N-[[1-(3,4-dimethoxyphenyl)cyclobutyl]methyl]-β,N-dimethyl-2-(3,4,5-trimethoxyphenyl)-m-dithiane-2-propanamine hydrochloride], in the data set “in vivo”, the LD50 lay in the range of 1000 to 2000 mg/kg. The “Vincristine RMI0.1” value in the data set with KB-8-5 cells [4] was 224. For the same compound, the IC50 with KB-8-5 cells [5] (read-out: IC50) came out at 21 µM.

Turning to `COc1ccc(CCN(C)CCC[C@@](C#N)(c2ccc(OC)c(OC)c2)C(C)C)cc1OC` [(-)Verapamil, reference compound], in the data set with KB-8-5 cells [4], the “Vincristine RMI0.1” value was found to be 47. This compound displayed an IC50 in the data set on KB-8-5 cells [5] of 72 µM.

Regarding `CN1CCN(CCCN2c3ccccc3Sc3ccc(C(F)(F)F)cc32)CC1` [trifluoperazine], the “activity in eliminating multiple resistance” value in data set [1] is reported as “certain activity in partially or completely eliminating multiple resistance”.

`COc1ccc(CCN(C)CC(C)CC2(c3ccc(Cl)cc3)SCCCS2)cc1OC.Cl` (racemic) [A, rac-2-(4-Chlorophenyl)-N-(3,4-dimethoxyphenethyl)-β,N-dimethyl-m-dithiane-2-propanamine hydrochloride]: the LD50 in “in vivo” was in the range of 1250 to 2500 mg/kg. In the data set with KB-8-5 cells [4], the “Vincristine RMI0.1” value was determined as 216. Further, the IC50 in the data set on KB-8-5 cells [5] (read-out: IC50) stood at 14 µM.

Take `C=C[C@H]1C[N@@]2CC[C@H]1C[C@@H]2[C@@H](O)c1ccnc2ccc(OC)cc12` [quinidine]: the “activity in eliminating multiple resistance” value in data set [1] was “certain activity in partially or completely eliminating multiple resistance”.

As for `COc1ccc(CCN(C)CC(C)CC2(c3ccc(C)cc3)SCCCS2)cc1OC.Cl` (racemic) [B, rac-N-(3,4-dimethoxyphenethyl)-β,N-dimethyl-2-(4-tolyl)-m-dithiane-2-propanamine hydrochloride], the LD50 in “in vivo” was 625 to 1250 mg/kg. In the data set with KB-8-5 cells [4], the “Vincristine RMI0.1” value was found to be 159. Also, in the data set on KB-8-5 cells [5] (read-out: IC50), the IC50 was determined as 14 µM.

Consider `COc1ccc(CCN(C)CCC[C@](C#N)(c2ccc(OC)c(OC)c2)C(C)C)cc1OC` [(+)Verapamil, reference compound], for which the “Vincristine RMI0.1” value with KB-8-5 cells [4] is 12. In the data set with KB-8-5 cells [5], this compound displayed an IC50 of 62 µM.

Take `COc1ccc(C2(CC(C)CN(C)CCc3ccc(Cl)cc3)SCCCS2)cc1OC.Cl` (racemic) [E, rac-N-(4-chlorophenethyl)-2-(3,4-dimethoxyphenyl)-β,N-dimethyl-m-dithiane-2-propanamine hydrochloride]: the LD50 in “in vivo” was 2500 to 5000 mg/kg. For the same compound, the “Vincristine RMI0.1” value in the data set with KB-8-5 cells [4] is listed as 24. Moreover, the IC50 with KB-8-5 cells [5] (read-out: IC50) turned out to be 7.7 µM.

For the compound `COc1ccc(C2(CN(C)CC(C)CC3(c4ccc(OC)c(OC)c4)SCCCS3)CCC2)cc1OC.Cl` (racemic) [D, rac-2-(3,4-dimethoxyphenyl)-N-[[1-(3,4-dimethoxyphenyl)cyclobutyl]methyl]-β,N-dimethyl-m-dithiane-2-propanamine hydrochloride], the LD50 in the data set “in vivo” was 1000 to 2000 mg/kg. The “Vincristine RMI0.1” value with KB-8-5 cells [4] is reported as 163. Besides, the IC50 in the data set on KB-8-5 cells [5] (read-out: IC50) is 21 µM.

(Values after US5405866A, “Multidrug resistance modifying dithianes” (Hoffmann-La Roche Inc., priority 1991, dated 1995).)
